Biological target: α7 nAChR subtype (Rattus norvegicus, UniProt Q05941)
Assay type: binding
Details: read-out: KD of radioligand (saturation curves, one site model)

α7 nAChR subtype, sequence (Q05941 23-502 limits assumed): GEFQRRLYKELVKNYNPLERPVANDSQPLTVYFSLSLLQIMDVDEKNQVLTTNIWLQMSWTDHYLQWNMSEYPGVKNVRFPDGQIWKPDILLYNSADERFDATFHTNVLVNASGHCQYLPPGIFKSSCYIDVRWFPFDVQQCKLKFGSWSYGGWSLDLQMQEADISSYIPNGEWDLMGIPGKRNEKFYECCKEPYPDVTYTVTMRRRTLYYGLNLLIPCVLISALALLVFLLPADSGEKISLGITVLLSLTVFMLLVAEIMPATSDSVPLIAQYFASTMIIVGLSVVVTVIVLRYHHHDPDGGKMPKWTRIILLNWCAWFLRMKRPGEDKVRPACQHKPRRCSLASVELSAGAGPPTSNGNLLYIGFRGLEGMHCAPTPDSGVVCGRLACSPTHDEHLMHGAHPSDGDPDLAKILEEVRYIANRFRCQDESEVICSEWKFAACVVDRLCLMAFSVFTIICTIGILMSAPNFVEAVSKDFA

Substance: 125I-α-Bungarotoxin [[^125I]-α-BTX]
- Kd: 1.67 nM

From patent US20080188518A1 (priority 2003, published 2008)
